Assay [1] has as its system CQC sensitive strain (NF54) of P. falciparum. Briefly: In vitro antiplasmodial activity, Assay B (as described by Vennerstrom et al. 2004). Particulars: Plasmodium falciparum; NF54, Vennerstrom et al. method. The format is cell-based. On the procedure: Compounds were screened against CQC sensitive strain (NF54) of P. falciparum in vitro as described by Vennerstrom et al. (2004). A full dose-response were performed starting at a concentration of 3000 nM, which is then serially diluted 2-fold in complete medium to give 10 concentrations; with the lowest concentration being approximately 6 nM. The same dilution techniques were used for all samples. References were tested at a starting concentration of 1000 ng/mL. The highest concentration of solvent to which the parasites were exposed has no measurable effect on the parasite viability (data not shown).

Assay [2] has as its system chloroquine sensitive (CQS) strain (NF54) of P. falciparum. Briefly: In vitro antiplasmodial activity, Assay A (parasite lactate dehydrogenase assay). The format is cell-based. The procedure:
Test samples were screened for in vitro antiplasmodial activity against a chloroquine sensitive (CQS) strain (NF54) of the malaria parasite P. falciparum. Continuous in vitro cultures of asexual erythrocyte stages of P. falciparum were maintained using a modified version of the method of Trager and Jensen (1976).1 Quantitative assessment of antiplasmodial activity in vitro was determined via the parasite lactate dehydrogenase assay using a modified method described by Makler (1993). The test samples were tested in triplicate on two separate occasions. Further dilutions were prepared in complete medium on the day of the experiment. Samples were tested as a suspension if not completely dissolved. Chloroquine and artesunate were used as the reference drugs. A full dose-response were performed starting at a concentration of 3000 nM, which is then serially diluted 2-fold in complete medium to give 10 concentrations; with the lowest concentration being approximately 6 nM. The same dilution techniques were used for all samples. References were tested at a starting concentration of 1000 ng/mL. The highest concentration of solvent to which the parasites were exposed has no measurable effect on the parasite viability (data not shown).

Structures are written as SMILES. Where two headings read alike, the source gives them in different places. Where only a bound is given, the exact number is not on record here.

With `C[C@H]1COCCN1C(=O)c1ccc(-c2cc3ncnc(-c4ccnc(C(C)(C)O)c4)c3o2)cc1` [Compound D159, (S)-(4-(4-(2-(2-hydroxypropan-2-yl)pyridin-4-yl)furo[3,2-d]pyrimidin-6-yl)phenyl)(3-methylmorpholino) methanone], the IC50 in assay [1] is less than 15 nM; in assay [2] (Plasmodium falciparum), 15 to 50 nM.

`C[C@@H]1COCCN1C(=O)c1ccc(-c2cc3ncnc(-c4ccnc(C(C)(C)O)c4)c3o2)cc1` [Compound D160, (R)-(4-(4-(2-(2-hydroxypropan-2-yl)pyridin-4-yl)furo[3,2-d]pyrimidin-6-yl)phenyl)(3-methylmorpholino) methanone]: the IC50 was less than 15 nM in assay [1] and 15 to 50 nM in assay [2] (Plasmodium falciparum).

Turning to `CC1CN(C(=O)c2ccc(-c3cc4ncnc(-c5ccnc(C(C)(C)O)c5)c4o3)cc2)CC(C)O1` (stereo not drawn) [Compound D161, (2,6-dimethylmorpholino)(4-(4-(2-(2-hydroxypropan-2-yl)pyridin-4-yl)furo[3,2-d]pyrimidin-6-yl)phenyl)methanone], the 50% inhibitory concentration (IC50) in assay [1] and in assay [2] (Plasmodium falciparum) was less than 15 nM throughout.

For the compound `CC(C)(O)c1cccc(-c2ncnc3cc(-c4ccc(C(=O)N5C[C@H]6C[C@@H]5CO6)cc4)oc23)c1` [Compound D172, ((1R,4R)-2-oxa-5-azabicyclo[2.2.1]heptan-5-yl)(4-(4-(3-(2-hydroxypropan-2-yl)phenyl)furo[3,2-d]pyrimidin-6-yl)phenyl)methanone], the IC50 in assay [1] and in assay [2] (Plasmodium falciparum) was less than 15 nM throughout.

For the compound `CC(C)(O)c1cccc(-c2ncnc3cc(-c4ccc(C(=O)N5C[C@@H]6C[C@H]5CO6)cc4)oc23)c1` [Compound D174, ((1S,4S)-2-oxa-5-azabicyclo[2.2.1]heptan-5-yl)(4-(4-(3-(2-hydroxypropan-2-yl)phenyl)furo[3,2-d]pyrimidin-6-yl)phenyl)methanone], the IC50 in assay [1] and in assay [2] (Plasmodium falciparum) was less than 15 nM each time.

Turning to `CC(C)(O)c1cc(-c2ncnc3cc(-c4ccc(C(=O)N5C[C@@H]6C[C@H]5CO6)cc4)oc23)ccn1` [Compound D176, ((1S,4S)-2-oxa-5-azabicyclo[2.2.1]heptan-5-yl)(4-(4-(2-(2-hydroxypropan-2-yl)pyridin-4-yl)furo[3,2-d]pyrimidin-6-yl)phenyl)methanone], the half-inhibitory concentration (IC50) in assay [1] and in assay [2] (Plasmodium falciparum) was less than 15 nM each time.

Turning to `CC(C)(O)c1cc(-c2ncnc3cc(-c4ccc(C(=O)N5C[C@H]6C[C@@H]5CO6)cc4)oc23)ccn1` [Compound D177, ((1R,4R)-2-oxa-5-azabicyclo[2.2.1]heptan-5-yl)(4-(4-(2-(2-hydroxypropan-2-yl)pyridin-4-yl)furo[3,2-d]pyrimidin-6-yl)phenyl)methanone], the IC50 in assay [1] and in assay [2] (Plasmodium falciparum) was less than 15 nM in each case.

Take `C[C@H]1CN(C(=O)c2ccc(-c3cc4ncnc(-c5cccc(C(C)(C)O)c5F)c4o3)cc2)CCO1` [Compound D191, (S)-(4-(4-(2-fluoro-3-(2-hydroxypropan-2-yl)phenyl)furo[3,2-d]pyrimidin-6-yl)phenyl)(2-methylmorpholino) methanone]: the IC50 in assay [1] and in assay [2] (Plasmodium falciparum) was less than 15 nM in each case.

For the compound `C[C@@H]1CN(C(=O)c2ccc(-c3cc4ncnc(-c5cccc(C(C)(C)O)c5F)c4o3)cc2)CCO1` [Compound D192, (R)-(4-(4-(2-fluoro-3-(2-hydroxypropan-2-yl)phenyl)furo[3,2-d]pyrimidin-6-yl)phenyl)(2-methylmorpholino) methanone], the IC50 in assay [1] and in assay [2] (Plasmodium falciparum) was less than 15 nM in each case.

For `C[C@@H]1CN(C(=O)c2ccc(-c3cc4ncnc(-c5cccc(C(C)(C)O)c5F)c4o3)cc2)C[C@@H](C)O1` [Compound D193, ((2R,6R)-2,6-dimethylmorpholino)(4-(4-(2-fluoro-3-(2-hydroxypropan-2-yl)phenyl)furo[3,2-d]pyrimidin-6-yl)phenyl)methanone], the IC50 in assay [1] and in assay [2] (Plasmodium falciparum) was less than 15 nM each time.

Take `C[C@H]1CN(C(=O)c2ccc(-c3cc4ncnc(-c5cccc(C(C)(C)O)c5F)c4o3)cc2)C[C@H](C)O1` [Compound D194, ((2S,6S)-2,6-dimethylmorpholino)(4-(4-(2-fluoro-3-(2-hydroxypropan-2-yl)phenyl)furo[3,2-d]pyrimidin-6-yl)phenyl)methanone]: the IC50 in assay [1] and in assay [2] (Plasmodium falciparum) was less than 15 nM in each case.

For the compound `C[C@H]1COCCN1C(=O)c1ccc(-c2cc3ncnc(-c4cccc(C(C)(C)O)c4F)c3o2)cc1` [Compound D195, (S)-(4-(4-(2-fluoro-3-(2-hydroxypropan-2-yl)phenyl)furo[3,2-d]pyrimidin-6-yl)phenyl)(3-methylmorpholino) methanone], the IC50 in assay [1] and in assay [2] (Plasmodium falciparum) was less than 15 nM throughout.

As to `C[C@@H]1COCCN1C(=O)c1ccc(-c2cc3ncnc(-c4cccc(C(C)(C)O)c4F)c3o2)cc1` [Compound D196, (R)-(4-(4-(2-fluoro-3-(2-hydroxypropan-2-yl)phenyl)furo[3,2-d]pyrimidin-6-yl)phenyl)(3-methylmorpholino) methanone], the IC50 in assay [1] and in assay [2] (Plasmodium falciparum) was less than 15 nM in each case.

On to `CC(C)(O)c1nccc(-c2ncnc3cc(-c4ccc(C(=O)N5CCOCC5)cc4)oc23)c1F` [Compound D207, (4-(4-(3-fluoro-2-(2-hydroxypropan-2-yl)pyridin-4-yl)furo[3,2-d]pyrimidin-6-yl)phenyl)(morpholino) methanone], for which the IC50 in assay [1] and in assay [2] (Plasmodium falciparum) was less than 15 nM each time.

Take `CC(C)(O)c1nccc(-c2ncnc3cc(-c4ccc(C(=O)N5C[C@H]6C[C@@H]5CO6)cc4)oc23)c1F` [Compound D208, ((1R,4R)-2-oxa-5-azabicyclo[2.2.1]heptan-5-yl)(4-(4-(3-fluoro-2-(2-hydroxypropan-2-yl)pyridin-4-yl)furo[3,2-d]pyrimidin-6-yl)phenyl)methanone]: the IC50 in assay [1] and in assay [2] (Plasmodium falciparum) was less than 15 nM each time.

`CS(=O)(=O)c1ccc(-c2cc3ncnc(-c4ccnc(N5CC(O)C5)c4)c3o2)cc1` [Compound P1, 1-(4-(6-(4-(methylsulfonyl)phenyl)furo [3,2-d]pyrimidin-4-yl)pyridin-2-yl)azetidin-3-ol]: the half-maximal inhibitory concentration (IC50) in assay [1] and in assay [2] (Plasmodium falciparum) was greater than 50 nM in each case.

Consider `C[C@@H]1CN(C(=O)c2ccc(-c3cc4ncnc(-c5ccnc(C(C)(C)O)c5)c4o3)cc2)C[C@H](C)O1` [Compound P17, ((2S,6R)-2,6-dimethylmorpholino)(4-(4-(2-(2-hydroxypropan-2-yl)pyridin-4-yl)furo[3,2-d]pyrimidin-6-yl)phenyl)methanone], for which the 50% inhibitory concentration (IC50) is less than 15 nM in assay [1] and greater than 50 nM in assay [2] (Plasmodium falciparum).

Regarding `C[C@H]1CN(C(=O)c2ccc(-c3cc4ncnc(-c5ccnc(C(C)(C)O)c5)c4o3)cc2)CCO1` [Compound P18, (S)-(4-(4-(2-(2-hydroxypropan-2-yl)pyridin-4-yl)furo[3,2-d]pyrimidin-6-yl)phenyl)(2-methylmorpholino) methanone], the IC50 in assay [1] was less than 15 nM; in assay [2] (Plasmodium falciparum), 15 to 50 nM.

Consider `C[C@@H]1CN(C(=O)c2ccc(-c3cc4ncnc(-c5ccnc(C(C)(C)O)c5)c4o3)cc2)CCO1` [Compound P19, (R)-(4-(4-(2-(2-hydroxypropan-2-yl)pyridin-4-yl)furo[3,2-d]pyrimidin-6-yl)phenyl)(2-methylmorpholino) methanone], for which the IC50 in assay [1] and in assay [2] (Plasmodium falciparum) was less than 15 nM throughout.

As to `C[C@@H]1CN(C(=O)c2ccc(-c3cc4ncnc(-c5cccc(C(C)(C)O)c5F)c4o3)cc2)C[C@H](C)O1` [Compound P20, ((2S,6R)-2,6-dimethylmorpholino)(4-(4-(2-fluoro-3-(2-hydroxypropan-2-yl)phenyl)furo[3,2-d]pyrimidin-6-yl)phenyl)methanone], the 50% inhibitory concentration (IC50) in assay [1] and in assay [2] (Plasmodium falciparum) was less than 15 nM each time.

With `CC(C)(O)c1cccc(-c2ncnc3cc(-c4ccc(C(=O)N5C[C@H]6C[C@@H]5CO6)cc4)oc23)c1F` [Compound P21, ((1R,4R)-2-oxa-5-azabicyclo[2.2.1]heptan-5-yl)(4-(4-(2-fluoro-3-(2-hydroxypropan-2-yl)phenyl)furo[3,2-d]pyrimidin-6-yl)phenyl)methanone], the IC50 in assay [1] and in assay [2] (Plasmodium falciparum) was less than 15 nM throughout.

`CC(C)(O)c1cccc(-c2ncnc3cc(-c4ccc(S(C)(=N)=O)cc4)oc23)c1F` (stereo not drawn) [Compound P28, (4-(4-(2-fluoro-3-(2-hydroxypropan-2-yl)phenyl)furo[3,2-d]pyrimidin-6-yl)phenyl)(imino)(methyl)-λ6-sulfanone] displayed an IC50 in assay [2] of less than 15 nM.

`CC(C)(O)c1cc(-c2ncnc3cc(-c4ccc(C(=O)N5CCOCC5)cc4)oc23)ccc1F` [Compound P32, (4-(4-(4-fluoro-3-(2-hydroxypropan-2-yl)phenyl)furo[3,2-d]pyrimidin-6-yl)phenyl)(morpholino) methanone]: the IC50 in assay [2] (Plasmodium falciparum) is greater than 50 nM.

Turning to `CC(C)(O)c1cccc(-c2ncnc3cc(-c4ccc(S(N)(=O)=O)cc4)oc23)c1F` [Compound P33, 4-(4-(2-fluoro-3-(2-hydroxypropan-2-yl)phenyl)furo[3,2-d]pyrimidin-6-yl)benzenesulfonamide], the IC50 in assay [2] (Plasmodium falciparum) lay in the range of 15 to 50 nM.

In general, IC50 refers to the point on the concentration scale where inhibition reaches its midpoint. Read a low IC50 as inhibition by little substance.

For the origin of these results see US20260042772A1, “FURO PYRIMIDINE DERIVATES” (Merck Patent GmbH, priority 2022, published 2026).
